Results published in PubChem BioAssay (NCI).
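Tested at 5 concentrations; 48 h exposure; 96-well plates; endpoints linearly interpolated, else capped at highest concentration. The concentration for 50% growth inhibition is given as GI50. TGI marks complete inhibition of growth.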

How the values were obtained:
Assay in all cases: NCI tumour cell line growth inhibition, 48 h
SK-OV-3 ovarian = system: SK-OV-3 ovarian
SK-MEL-5 melanoma = system: SK-MEL-5 melanoma
HL-60(TB) leukemia = system: HL-60(TB) leukemia
SNB-19 CNS = system: SNB-19 CNS
HT29 colon = system: HT29 colon
KM12 colon = system: KM12 colon
IGROV1 ovarian = system: IGROV1 ovarian
HCT-15 colon = system: HCT-15 colon
COLO 205 colon = system: COLO 205 colon
786-0 renal = system: 786-0 renal

| SMILES | GI50 (SK-OV-3 ovarian) [µM] | TGI (SK-OV-3 ovarian) [µM] | GI50 (SK-MEL-5 melanoma) [µM] | TGI (SK-MEL-5 melanoma) [µM] | GI50 (HL-60(TB) leukemia) [µM] | TGI (HL-60(TB) leukemia) [µM] | GI50 (SNB-19 CNS) [µM] | TGI (SNB-19 CNS) [µM] | GI50 (HT29 colon) [µM] | TGI (HT29 colon) [µM] | GI50 (KM12 colon) [µM] | TGI (KM12 colon) [µM] | GI50 (IGROV1 ovarian) [µM] | TGI (IGROV1 ovarian) [µM] | GI50 (HCT-15 colon) [µM] | TGI (HCT-15 colon) [µM] | GI50 (COLO 205 colon) [µM] | TGI (COLO 205 colon) [µM] | GI50 (786-0 renal) [µM] | TGI (786-0 renal) [µM] |
| --- | --- | --- | --- | --- | --- | --- | --- | --- | --- | --- | --- | --- | --- | --- | --- | --- | --- | --- | --- | --- |
| O=[N+]([O-])c1cccc(-c2ncc(-c3ccc(Cl)cc3Cl)[nH]2)c1 | 22.7 | > 70 | 4.59 | 9.23 | 3.8 | 17.3 | 7.85 | 23.2 | 1.88 | 4.79 | 1.75 | 3.41 | 6.65 | 13.5 | 2.39 | 6.82 | 3.45 | 11.4 | 5.16 | 11 |
| CCCCCCN(CCCCCC)CC(O)c1cccc2ccc(Cl)cc12 (stereo not given) | 11.3 | 23.4 | 2.12 | 5.17 | 9.63 | 24.6 | 12.9 | 26.6 | 3.86 | 18.5 | 5.48 | 19.6 | 10.3 | 23.8 | 5.01 | 18.3 | 3.82 | 14.9 | 10.9 | 23.7 |
| C/C(=N/Nc1ccc([N+](=O)[O-])cc1[N+](=O)[O-])C(CC(C(=O)Nc1ccccc1C)/C(C)=N\Nc1ccc([N+](=O)[O-])cc1[N+](=O)[O-])C(=O)Nc1ccccc1C (stereo not given) |  | > 61.2 |  | 36.8 |  | > 100 |  | 32 |  | 28 |  | 38.5 |  | 32.1 |  | > 63.5 |  | 25.4 |  | 41.3 |
| COc1cc(C(=O)/C=C/c2c(C(F)(F)F)nc3sccn23)cc(OC)c1OC | 2.87 | 8.99 | 1.59 | 2.96 | 1.83 | 7.63 | 2.67 | 10.2 | 1.83 | 4.08 | 1.47 | 2.97 | 2.66 | 61.4 | 1.8 | 5.39 | 1.94 | 3.44 | 1.76 | 3.16 |
| COC1C(CO)OC(n2c3ccccc3c3c4c(c5c6ccccc6[nH]c5c32)C(=O)NC4=O)C(O)C1OC(=O)C(N)CCCCN (stereo not given) | 2.11 | > 15.5 | 0.208 | 0.838 | 0.231 | > 50 | 1.31 | > 50 | 2.65 | > 50 | 0.499 | 4.13 | 0.61 | 4.42 | 8.98 | > 39.5 | 1.27 | > 17.2 | 0.653 | > 21.5 |
| O=C1c2cccc3cccc(c23)C(=O)N1CCCN1CCN(CCCN2C(=O)c3cccc4cccc(c34)C2=O)CC1 |  | > 100 |  | > 100 |  | > 100 |  | > 100 |  | > 100 |  | > 100 |  | > 100 |  | > 100 |  | > 100 |  | > 100 |
| COc1ccccc1NC(=O)C(=O)C1C(=O)Nc2ccccc2S1=O (stereo not given) |  | > 100 |  | > 100 |  | > 100 |  | > 100 |  | > 100 |  | > 100 |  | > 100 |  | > 100 |  | > 100 |  | > 100 |
| CC(C)C[C@H](NC(=O)[C@@H](O)[C@H](N)Cc1ccccc1)C(=O)O |  | > 100 |  | > 100 |  | > 100 |  | > 100 |  | > 100 |  | > 100 |  | > 100 |  | > 100 |  | > 100 |  | > 100 |
| C=CC[PH+](c1ccccc1)c1ccccc1.C=CC[PH+](c1ccccc1)c1ccccc1.[Cl][Pt][Cl] | 24 | 65.7 | 15.8 | 30.6 | 3.34 | 14 | 14.2 | 32.4 | 8.98 | 32.8 | 15.4 | 35.7 | 3.68 | 13.9 | 3.87 | 16.8 | 5.39 | 34.1 | 12.6 | 25.5 |
| N#CC1(C#N)C2C=CC(C3CCC=C32)C1(C#N)C#N (stereo not given) |  | > 10 |  | > 10 |  | 3.81 |  | > 10 |  | > 10 |  | > 10 |  | > 10 |  | > 10 |  | 3.66 |  | > 9.04 |
| N#CC(=C=[N-])[n+]1ccc(Cl)cc1 |  | > 100 |  | 29.7 |  | 20.4 |  | 94.5 |  | 33.8 |  | 59.7 |  | 36.4 |  | 28.6 |  | 32.9 |  | 37.2 |
| CCCCCCCCCCCCCCCC(=O)OCC1OC(n2ccc(N)nc2=O)C(O)C1O (stereo not given) |  | > 100 |  | > 100 |  | > 61.8 |  | > 100 |  | > 100 |  | > 100 |  | > 100 |  | > 100 |  | > 100 |  | > 50.5 |
| CN(C)c1ccc(Sc2ccc3nc(N)nc(N)c3c2)cc1 | 2.71 | 16.8 | 0.503 | 4.78 | 0.444 | 2.2 | 1.2 | 17.7 | 0.453 | 12 | 1.16 | 12.2 | 0.67 | 14.2 | 0.429 | 14.2 | 1.14 | 2.59 | 0.495 | 2.5 |
| C#Cc1ccc(-n2c(/C=C/c3cc(OC)c(OC)c(OC)c3)nc3ncccc3c2=O)cc1 | 5.33 | 77.7 | 1.78 | 4.4 | 3.84 | 25.6 | 16.2 | > 100 | 3.92 | 15.1 | 3.32 | 12.8 | 6.08 | > 100 | 5.58 | > 100 | 3.19 | 11.9 | 5.31 | > 100 |
| CCOc1cccnc1/C=N/NC(N)=S | 5.01 | > 100 | 3.4 | > 100 | 2.42 | 6.16 | 4.43 | > 100 | 4.34 | > 100 | 4.38 | > 100 | 5.01 | > 100 | 4.08 | > 100 | 3.87 | > 100 | 3.66 | > 100 |
